Experimental data taken from ChEMBL document CHEMBL1201862, “PubChem BioAssay data set” (2004).
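Test compounds were applied to cells in 96-well plates for 48 hours at 5 doses. GI50 marks 50% less growth.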 Calls of active or inactive are those of the source. Cut-off read from the data, not from the text of the source: active = GI50 up to about 1.1 µM and inactive = higher.

What was measured:
Assay in all cases: NCI anticancer screen, dose series, 48 h
A498 = test system: A498
UACC-62 = test system: UACC-62
IGROV-1 = test system: IGROV-1
LOX IMVI = test system: LOX IMVI
NCI/ADR-RES = test system: NCI/ADR-RES
UACC-257 = test system: UACC-257
SR = test system: SR
NCI-H522 = test system: NCI-H522
U-251 = test system: U-251
Malme-3M = test system: Malme-3M
A549 = test system: A549
SNB-19 = test system: SNB-19
OVCAR-5 = test system: OVCAR-5
NCI-H460 = test system: NCI-H460
RPMI-8226 = test system: RPMI-8226
OVCAR-8 = test system: OVCAR-8
HCC 2998 = test system: HCC 2998
MDA-MB-231 = test system: MDA-MB-231
MDA-N = test system: MDA-N
SF-295 = test system: SF-295

Compound	GI50 (A498)	GI50 (UACC-62)	GI50 (IGROV-1)	GI50 (LOX IMVI)	GI50 (NCI/ADR-RES)	GI50 (UACC-257)	GI50 (SR)	GI50 (NCI-H522)	GI50 (U-251)	GI50 (Malme-3M)	GI50 (A549)	GI50 (SNB-19)	GI50 (OVCAR-5)	GI50 (NCI-H460)	GI50 (RPMI-8226)	GI50 (OVCAR-8)	GI50 (HCC 2998)	GI50 (MDA-MB-231)	GI50 (MDA-N)	GI50 (SF-295)
S=c1sscc1N1CCSc2ssc(=S)c21	32.1 µM (inactive)	67.1 µM (inactive)	21.1 µM (inactive)	28.4 µM (inactive)	28.4 µM (inactive)	> 100 µM (inactive)	> 100 µM (inactive)	19.8 µM (inactive)	13.8 µM (inactive)	> 100 µM (inactive)	48.6 µM (inactive)	18.8 µM (inactive)	> 100 µM (inactive)	> 100 µM (inactive)	> 100 µM (inactive)	4.66 µM (inactive)	> 100 µM (inactive)	30.1 µM (inactive)	> 100 µM (inactive)	–
C/C(=N/NC(=S)N1CCCCCC1)c1ccccc1O	23.8 µM (inactive)	3.05 µM (inactive)	3.72 µM (inactive)	2.07 µM (inactive)	1.69 µM (inactive)	4.6 µM (inactive)	0.492 µM (active)	1.49 µM (inactive)	1.87 µM (inactive)	2.59 µM (inactive)	6.05 µM (inactive)	42.2 µM (inactive)	12.7 µM (inactive)	0.65 µM (active)	2.48 µM (inactive)	2.81 µM (inactive)	7.4 µM (inactive)	29.9 µM (inactive)	13.6 µM (inactive)	4.8 µM (inactive)
Cc1cccc(C)c1/N=N/c1ccc(O)c(CN(C)C)c1	35.6 µM (inactive)	26.7 µM (inactive)	26.3 µM (inactive)	36.5 µM (inactive)	41.2 µM (inactive)	32.7 µM (inactive)	34.4 µM (inactive)	42.6 µM (inactive)	> 100 µM (inactive)	20.5 µM (inactive)	65.9 µM (inactive)	> 100 µM (inactive)	28.3 µM (inactive)	26 µM (inactive)	29 µM (inactive)	> 100 µM (inactive)	19.9 µM (inactive)	> 100 µM (inactive)	50.8 µM (inactive)	71.6 µM (inactive)
CCN(CC)C1Oc2cc3c(cc2C(c2cc(OC)c(OC)c(OC)c2)C1C)OCO3 (centres undefined)	1.59 µM (inactive)	1.06 µM (active)	1.52 µM (inactive)	0.762 µM (active)	0.219 µM (active)	2.88 µM (inactive)	0.256 µM (active)	0.344 µM (active)	0.6 µM (active)	0.748 µM (active)	1.55 µM (inactive)	1.29 µM (inactive)	2 µM (inactive)	0.944 µM (active)	0.927 µM (active)	1.39 µM (inactive)	0.809 µM (active)	3.15 µM (inactive)	0.0836 µM (active)	0.441 µM (active)
O=C1C=CC(=O)c2c1ccc1c3ccccc3n(CCCCCn3c4ccccc4c4ccc5c(c43)C(=O)C=CC5=O)c21	54.5 µM (inactive)	25.7 µM (inactive)	14.7 µM (inactive)	16 µM (inactive)	25.6 µM (inactive)	16.3 µM (inactive)	1.9 µM (inactive)	2.02 µM (inactive)	20 µM (inactive)	16.7 µM (inactive)	> 100 µM (inactive)	41.2 µM (inactive)	> 49.5 µM (inactive)	> 78 µM (inactive)	4.14 µM (inactive)	17.7 µM (inactive)	33 µM (inactive)	21.2 µM (inactive)	20.3 µM (inactive)	> 100 µM (inactive)
CC1CC[C@@]2(OC1)OC1C[C@H]3[C@@H]4CC=C5CC(OC6OC(CO)C(OC7OC(CO)C(O)C(OC8OCC(O)C(O)C8O)C7OC7OC(CO)C(OC8OC(C)C(OC9OC(C)C(O)C(O)C9O)C(O)C8O)C(O)C7O)C(O)C6O)CCC5(C)[C@H]4CCC3(C)C1[C@@H]2C (some centres undefined)	2.02 µM (inactive)	9.71 µM (inactive)	8.49 µM (inactive)	8.99 µM (inactive)	9.48 µM (inactive)	9.35 µM (inactive)	0.495 µM (active)	8.87 µM (inactive)	9.04 µM (inactive)	10.6 µM (inactive)	7.48 µM (inactive)	5.61 µM (inactive)	7.46 µM (inactive)	9.93 µM (inactive)	10.8 µM (inactive)	9.95 µM (inactive)	7.08 µM (inactive)	5.36 µM (inactive)	9.02 µM (inactive)	6.71 µM (inactive)
S=c1sc2c(s1)SCCCCSCCCCSc1sc(=S)sc1SCCCCSCCCCS2	> 100 µM (inactive)	> 100 µM (inactive)	> 100 µM (inactive)	> 100 µM (inactive)	> 100 µM (inactive)	> 100 µM (inactive)	> 100 µM (inactive)	> 100 µM (inactive)	> 100 µM (inactive)	> 100 µM (inactive)	> 100 µM (inactive)	> 100 µM (inactive)	> 100 µM (inactive)	> 100 µM (inactive)	> 100 µM (inactive)	> 100 µM (inactive)	> 100 µM (inactive)	> 100 µM (inactive)	> 100 µM (inactive)	> 100 µM (inactive)
O=C1CC(c2ccccc2Cl)C2(C(=O)NC(=O)NC2=O)C(c2ccccc2Cl)C1 (centres undefined)	> 100 µM (inactive)	46.9 µM (inactive)	0.104 µM (active)	51.8 µM (inactive)	> 100 µM (inactive)	> 100 µM (inactive)	58.1 µM (inactive)	> 100 µM (inactive)	> 100 µM (inactive)	5.05 µM (inactive)	85.3 µM (inactive)	> 100 µM (inactive)	> 100 µM (inactive)	98.4 µM (inactive)	68.2 µM (inactive)	> 100 µM (inactive)	49.2 µM (inactive)	> 100 µM (inactive)	78 µM (inactive)	> 100 µM (inactive)
CN(C)c1ccc(/N=C2/C=CC(=C(C#N)C#N)c3ccccc32)cc1	0.392 µM (active)	0.386 µM (active)	0.222 µM (active)	0.282 µM (active)	0.0975 µM (active)	1.49 µM (inactive)	0.0345 µM (active)	0.0555 µM (active)	0.333 µM (active)	0.625 µM (active)	0.436 µM (active)	0.536 µM (active)	0.326 µM (active)	0.332 µM (active)	0.122 µM (active)	0.213 µM (active)	0.244 µM (active)	0.307 µM (active)	0.0365 µM (active)	0.291 µM (active)
C=C(C)[C@@H]1CC[C@@H](C)[C@](O)([C@@H]2C[C@@H]([C@H](COC(=O)c3ccccc3)OC(=O)c3ccccc3)OC2=O)C1	> 100 µM (inactive)	> 100 µM (inactive)	> 100 µM (inactive)	> 100 µM (inactive)	> 100 µM (inactive)	> 100 µM (inactive)	24.9 µM (inactive)	> 100 µM (inactive)	> 100 µM (inactive)	> 100 µM (inactive)	> 100 µM (inactive)	> 100 µM (inactive)	> 100 µM (inactive)	39.1 µM (inactive)	54 µM (inactive)	> 100 µM (inactive)	> 100 µM (inactive)	> 100 µM (inactive)	> 100 µM (inactive)	> 100 µM (inactive)
